Test results published in PubChem BioAssay AID1963862 (Molecular Pharmacology Branch, DTP, NCI, 2024).
pIC50: −log10 of the molar value.

System: KRAS patient-derived spheroids with HUVEC/MSC, viability
Assay: Anticancer human tumor 941728-121-R-J1-PDC patient-derived lung adenocarcinoma cell line growth inhibition [KRAS2]
Conditions: for pIC50: curve of first compound; for viability, T/C: stronger effect = lower value
Outline: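 Combination screen of spheroid viability in tumor-cell co-cultures with endothelial (HUVEC) and mesenchymal stem cell stroma. Each agent was tested in half-log dilutions, topping at clinical Cmax or at 10 microM without a known Cmax.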

[1] = second compound 0.0316 µM, first compound 0.0316 µM
[2] = second compound 0.0316 µM, first compound 0.1 µM
[3] = second compound 0.1 µM, first compound 0.0316 µM
[4] = second compound 0.1 µM, first compound 0.1 µM
[5] = second compound 0.316 µM, first compound 0.0316 µM
[6] = second compound 0.316 µM, first compound 0.1 µM
[7] = second compound 1 µM, first compound 0.0316 µM
[8] = second compound 1 µM, first compound 0.1 µM
[9] = second compound 3.16 µM, first compound 0.0316 µM
[10] = second compound 3.16 µM, first compound 0.1 µM
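Also: spheroids exposed to agents for seven days before readout.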

COc1cc2nccc(Oc3ccc(NC(=O)C4(C(=O)Nc5ccc(F)cc5)CC4)cc3)c2cc1OC + C=CC(=O)N1CCN(c2nc(OCC3CCCN3C)nc3c2CCN(c2cccc4cccc(C)c24)C3)CC1CC#N
pIC50 (second compound 0.0316 µM): > 7.50 | pIC50 (second compound 0.1 µM): > 7.50 | pIC50 (second compound 0.316 µM): > 7.50 | pIC50 (second compound 1 µM): > 7.50 | pIC50 (second compound 3.16 µM): > 7.50 | viability, T/C [1]: 17.9% | viability, T/C [2]: 18% | viability, T/C (second compound 0.0316 µM, first compound 0.316 µM): 15.1% | viability, T/C (second compound 0.0316 µM, first compound 1 µM): 13.3% | viability, T/C (second compound 0.0316 µM, first compound 3.16 µM): 7.03% | viability, T/C (second compound 0.0316 µM, first compound 10 µM): 7.62% | viability, T/C [3]: 14.3% | viability, T/C [4]: 15.8% | viability, T/C (second compound 0.1 µM, first compound 0.316 µM): 15.3% | viability, T/C (second compound 0.1 µM, first compound 1 µM): 13.3% | viability, T/C (second compound 0.1 µM, first compound 3.16 µM): 5.66% | viability, T/C (second compound 0.1 µM, first compound 10 µM): 6.73% | viability, T/C [5]: 15.4% | viability, T/C [6]: 16.3% | viability, T/C (second compound 0.316 µM, first compound 0.316 µM): 13.1% | viability, T/C (second compound 0.316 µM, first compound 1 µM): 13.7% | viability, T/C (second compound 0.316 µM, first compound 3.16 µM): 4.32% | viability, T/C (second compound 0.316 µM, first compound 10 µM): 5.26% | viability, T/C [7]: 14.2% | viability, T/C [8]: 14.5% | viability, T/C (second compound 1 µM, first compound 0.316 µM): 10.5% | viability, T/C (second compound 1 µM, first compound 1 µM): 7.23% | viability, T/C (second compound 1 µM, first compound 3.16 µM): 1.37% | viability, T/C (second compound 1 µM, first compound 10 µM): 0.49% | viability, T/C [9]: 0.1% | viability, T/C [10]: 0.12% | viability, T/C (second compound 3.16 µM, first compound 0.316 µM): 0.12% | viability, T/C (second compound 3.16 µM, first compound 1 µM): 0.09% | viability, T/C (second compound 3.16 µM, first compound 3.16 µM): 0.09% | viability, T/C (second compound 3.16 µM, first compound 10 µM): 0.19%

Cn1ncnc1[C@H]1c2n[nH]c(=O)c3cc(F)cc(c23)N[C@@H]1c1ccc(F)cc1 + C=CC(=O)N1CCN(c2nc(OCC3CCCN3C)nc3c2CCN(c2cccc4cccc(C)c24)C3)CC1CC#N
pIC50 (second compound 0.0316 µM): > 9.50 | pIC50 (second compound 0.1 µM): > 9.50 | pIC50 (second compound 0.316 µM): > 9.50 | pIC50 (second compound 1 µM): > 9.50 | pIC50 (second compound 3.16 µM): > 9.50 | viability, T/C (second compound 0.0316 µM, first compound 0.000316 µM): 24.6% | viability, T/C (second compound 0.0316 µM, first compound 0.001 µM): 23.2% | viability, T/C (second compound 0.0316 µM, first compound 0.00316 µM): 19.4% | viability, T/C (second compound 0.0316 µM, first compound 0.01 µM): 19.7% | viability, T/C [1]: 17.4% | viability, T/C [2]: 17.5% | viability, T/C (second compound 0.1 µM, first compound 0.000316 µM): 18.3% | viability, T/C (second compound 0.1 µM, first compound 0.001 µM): 18.2% | viability, T/C (second compound 0.1 µM, first compound 0.00316 µM): 19.9% | viability, T/C (second compound 0.1 µM, first compound 0.01 µM): 17.6% | viability, T/C [3]: 17.3% | viability, T/C [4]: 15.8% | viability, T/C (second compound 0.316 µM, first compound 0.000316 µM): 18.2% | viability, T/C (second compound 0.316 µM, first compound 0.001 µM): 18.9% | viability, T/C (second compound 0.316 µM, first compound 0.00316 µM): 17.9% | viability, T/C (second compound 0.316 µM, first compound 0.01 µM): 16.2% | viability, T/C [5]: 16% | viability, T/C [6]: 17.1% | viability, T/C (second compound 1 µM, first compound 0.000316 µM): 17.6% | viability, T/C (second compound 1 µM, first compound 0.001 µM): 17.5% | viability, T/C (second compound 1 µM, first compound 0.00316 µM): 13.5% | viability, T/C (second compound 1 µM, first compound 0.01 µM): 18.3% | viability, T/C [7]: 15.5% | viability, T/C [8]: 14.2% | viability, T/C (second compound 3.16 µM, first compound 0.000316 µM): 0.11% | viability, T/C (second compound 3.16 µM, first compound 0.001 µM): 0.2% | viability, T/C (second compound 3.16 µM, first compound 0.00316 µM): 0.09% | viability, T/C (second compound 3.16 µM, first compound 0.01 µM): 0.11% | viability, T/C [9]: 0.16% | viability, T/C [10]: 0.23%
